{"source": "patent US5258406A", "about": "“Sulfonimidamides” (priority 1992, dated 1993)", "assay_type_in_all_cases": "in vivo", "key": {"CA755 adenocarcinoma": {"tested_on": "CA755 adenocarcinoma", "conditions": "IP, DX 10", "method": "(§1) The compounds were tested in C3H mice bearing a 6C3HED lymphosarcoma, also known as the Gardner lymphosarcoma (GLS), and in a variety of human tumor xenografts in CD1 nu/nu mice, including CX-1, LX-1, HXGC3, and VRC5. The 6C3HED lymphosarcoma was obtained from the Division of Cancer Treatment, National […] Institute, Tumor Bank, maintained at E. G. and G. Mason Research (Worcester, Mass.). The CX-1 human colon carcinoma and the LX-1 human lung carcinoma xenografts were obtained from the National Cancer Institute. The HXGC3 and VRC5 human colon xenografts were obtained from Dr. P. J. Houghton, St. Jude Children's Hospital in Memphis (see Br. J. Cancer, 37, 213 (1978)). First passage tumor was stored in liquid nitrogen using standard techniques. The transplanted tumor was reestablished from the Tumor Bank every six months or as needed. The tumor was maintained by serial passage twice weekly in C3H mice.\n(§2) In the procedure the tumor was removed from passage animals and minced into 1- to 3-mm square fragments using sterile techniques. Tumor pieces were checked for sterility using both Antibiotic Medium 1 and Brain Heart Infusion (Difco, Detroit, Mich.). Recipient mice were shaved and tumor pieces were implanted subcutaneously in the auxiliary region by trocar. Drug therapy on the appropriate schedule was initiated on the day after tumor implant for 6C3HED and after a seven (7) day delay for xenografts (or other delay as noted in Table 2). The compound being tested was mixed with 2.5% Emulphor EL620 from GAF Corporation (1:40 dilution in saline). Food and water were provided ad libitium. The drug was administered orally in 0.5 ml of 2.5% Emulphor (unless otherwise indicated). The tumor was measured the day after treatment ended with two dimensional measurements (width and length) of the tumor taken using automated digital calipers interfaced to a microcomputer. Approximate weight for the tumor was calculated using the following formula [Worzalla, J. F., et al., Invest. New Drugs, 8, 241 (1990], (tumor weight in mg)=(width in mm)^2 ×(length in mm)/2.\n(§3) At least one control group of an equal number of mice was treated with the same volume of 2.5% Emulphor only. The percent inhibition was determined by subtracting the ratio of the mean tumor size of the test group relative to the control group from one and multiplying the result times 100.\n(§4) The results of several experiments in mice bearing a 6C3HED lymphosarcoma (or other tumor where indicated) when the indicated compounds were administered are provided in Table 2. In Table 2, column 1 gives the Example number of the compound used, column 2 lists the dose level in mg/kg, column 3 provides the percent inhibition of tumor growth, column 4 gives the number of mice which died relative to the total number of animals in the group, column 5 gives the method of administration of the compound, and column 6 gives the dosage schedule. The protocol used with other tumors was the same as with the 6C3HED lymphosarcoma.\n(h) Tumor type CA755 adenocarcinoma"}, "CX1": {"tested_on": "CX1", "conditions": "IP, DX 10, from day 7 after implant", "method": "as §1, §2, §3, §4"}, "MX1": {"tested_on": "MX1", "conditions": "IP, DX 10", "method": "as §1, §2, §3, §4"}, "GC3": {"tested_on": "GC3", "conditions": "IP, DX 10", "method": "as §1, §2, §3, §4"}, "LX1": {"tested_on": "LX1", "conditions": "IP", "method": "as §1, §2, §3, §4"}, "VRC5": {"tested_on": "VRC5", "method": "as §1, §2, §3, §4"}, "HC1": {"tested_on": "HC1", "conditions": "IP, DX 10", "method": "as §1, §2, §3, §4"}, "B16": {"tested_on": "B16", "conditions": "IP, DX 10", "method": "as §1, §2, §3, §4"}, "[1]": {"conditions": "3.75 mg/kg, DX 10 (line among ELC2 lines)"}, "[2]": {"conditions": "3.75 mg/kg, DX 10, from day 7 after implant"}, "[3]": {"conditions": "7.5 mg/kg, DX 10, from day 7 after implant"}, "[4]": {"conditions": "15 mg/kg, DX 10, from day 7 after implant"}, "[5]": {"conditions": "30 mg/kg, DX 10, from day 7 after implant"}, "[6]": {"conditions": "IP, 7.5 mg/kg, DX 10, from day 7 after implant"}, "[7]": {"conditions": "IP, 15 mg/kg, DX 10, from day 7 after implant"}, "[8]": {"conditions": "IP, 30 mg/kg, DX 10, from day 7 after implant"}, "[9]": {"conditions": "IP, 60 mg/kg, DX 10, from day 7 after implant"}}, "note": "Read-outs that look alike come from different tables or passages of the source.", "data": [{"smiles": "Cc1ccc(S(=N)(=O)NC(=O)Nc2ccc(Cl)cc2)cc1C", "note": "(stereo not drawn) [Example 36, N-[[(4-chlorophenyl)amino]carbonyl]-3,4-dimethylbenzenesulfonimidamide]", "values": [{"measurement": "% inhibition of tumor growth", "setting": "CA755 adenocarcinoma; 3.75 mg/kg", "result": 26, "unit": "%"}, {"measurement": "Tox/Tot (mice which died / total)", "setting": "CA755 adenocarcinoma; 3.75 mg/kg", "result": "0/10"}, {"measurement": "% inhibition of tumor growth", "setting": "CA755 adenocarcinoma; 7.5 mg/kg", "result": 1, "unit": "%"}, {"measurement": "Tox/Tot (mice which died / total)", "setting": "CA755 adenocarcinoma; 7.5 mg/kg", "result": "0/10"}, {"measurement": "% inhibition of tumor growth", "setting": "CA755 adenocarcinoma; 15 mg/kg", "result": 42, "unit": "%"}, {"measurement": "Tox/Tot (mice which died / total)", "setting": "CA755 adenocarcinoma; 15 mg/kg", "result": "0/10"}, {"measurement": "% inhibition of tumor growth", "setting": "CA755 adenocarcinoma; 30 mg/kg", "result": 72, "unit": "%"}, {"measurement": "Tox/Tot (mice which died / total)", "setting": "CA755 adenocarcinoma; 30 mg/kg", "result": "0/10"}, {"measurement": "% inhibition of tumor growth", "setting": "CX1; 3.75 mg/kg", "result": 4, "unit": "%"}, {"measurement": "Tox/Tot (mice which died / total)", "setting": "CX1; 3.75 mg/kg", "result": "0/10"}, {"measurement": "% inhibition of tumor growth", "setting": "CX1; 7.5 mg/kg", "result": 10, "unit": "%"}, {"measurement": "Tox/Tot (mice which died / total)", "setting": "CX1; 7.5 mg/kg", "result": "0/10"}, {"measurement": "% inhibition of tumor growth", "setting": "CX1; 15 mg/kg", "result": 32, "unit": "%"}, {"measurement": "Tox/Tot (mice which died / total)", "setting": "CX1; 15 mg/kg", "result": "1/10"}, {"measurement": "% inhibition of tumor growth", "setting": "CX1; 30 mg/kg", "result": 23, "unit": "%"}, {"measurement": "Tox/Tot (mice which died / total)", "setting": "CX1; 30 mg/kg", "result": "4/10"}, {"measurement": "% inhibition of tumor growth", "setting": "MX1; 3.75 mg/kg", "result": 5, "unit": "%"}, {"measurement": "Tox/Tot (mice which died / total)", "setting": "MX1; 3.75 mg/kg", "result": "0/10"}, {"measurement": "% inhibition of tumor growth", "setting": "MX1; 7.5 mg/kg", "result": 0, "unit": "%"}, {"measurement": "Tox/Tot (mice which died / total)", "setting": "MX1; 7.5 mg/kg", "result": "0/10"}, {"measurement": "% inhibition of tumor growth", "setting": "MX1; 15 mg/kg", "result": 0, "unit": "%"}, {"measurement": "Tox/Tot (mice which died / total)", "setting": "MX1; 15 mg/kg", "result": "0/10"}, {"measurement": "% inhibition of tumor growth", "setting": "MX1; 30 mg/kg", "result": 12, "unit": "%"}, {"measurement": "Tox/Tot (mice which died / total)", "setting": "MX1; 30 mg/kg", "result": "4/10"}, {"measurement": "% inhibition of tumor growth", "setting": "GC3; 3.75 mg/kg", "result": 6, "unit": "%"}, {"measurement": "Tox/Tot (mice which died / total)", "setting": "GC3; 3.75 mg/kg", "result": "0/10"}, {"measurement": "% inhibition of tumor growth", "setting": "GC3; 7.5 mg/kg", "result": 17, "unit": "%"}, {"measurement": "Tox/Tot (mice which died / total)", "setting": "GC3; 7.5 mg/kg", "result": "0/10"}, {"measurement": "% inhibition of tumor growth", "setting": "GC3; 15 mg/kg", "result": 13, "unit": "%"}, {"measurement": "Tox/Tot (mice which died / total)", "setting": "GC3; 15 mg/kg", "result": "1/10"}, {"measurement": "% inhibition of tumor growth", "setting": "GC3; 30 mg/kg", "result": 12, "unit": "%"}, {"measurement": "Tox/Tot (mice which died / total)", "setting": "GC3; 30 mg/kg", "result": "9/10"}, {"measurement": "% inhibition of tumor growth", "setting": "LX1; [1]", "result": 0, "unit": "%"}, {"measurement": "Tox/Tot (mice which died / total)", "setting": "LX1; [1]", "result": "0/10"}, {"measurement": "% inhibition of tumor growth", "setting": "LX1; [2]", "result": 16, "unit": "%"}, {"measurement": "Tox/Tot (mice which died / total)", "setting": "LX1; [2]", "result": "0/10"}, {"measurement": "% inhibition of tumor growth", "setting": "LX1; [3]", "result": 1, "unit": "%"}, {"measurement": "Tox/Tot (mice which died / total)", "setting": "LX1; [3]", "result": "0/10"}, {"measurement": "% inhibition of tumor growth", "setting": "LX1; [4]", "result": 18, "unit": "%"}, {"measurement": "Tox/Tot (mice which died / total)", "setting": "LX1; [4]", "result": "1/10"}, {"measurement": "% inhibition of tumor growth", "setting": "LX1; [5]", "result": "TOX"}, {"measurement": "Tox/Tot (mice which died / total)", "setting": "LX1; [5]", "result": "10/10"}, {"measurement": "% inhibition of tumor growth", "setting": "VRC5; [6]", "result": 0, "unit": "%"}, {"measurement": "Tox/Tot (mice which died / total)", "setting": "VRC5; [6]", "result": "1/10"}, {"measurement": "% inhibition of tumor growth", "setting": "VRC5; [7]", "result": 0, "unit": "%"}, {"measurement": "Tox/Tot (mice which died / total)", "setting": "VRC5; [7]", "result": "0/10"}, {"measurement": "% inhibition of tumor growth", "setting": "VRC5; [8]", "result": 44, "unit": "%"}, {"measurement": "Tox/Tot (mice which died / total)", "setting": "VRC5; [8]", "result": "4/10"}, {"measurement": "% inhibition of tumor growth", "setting": "VRC5; [9]", "result": "TOX"}, {"measurement": "Tox/Tot (mice which died / total)", "setting": "VRC5; [9]", "result": "10/10"}, {"measurement": "% inhibition of tumor growth", "setting": "VRC5; oral, 5 mg/kg, DX 10", "result": 0, "unit": "%"}, {"measurement": "Tox/Tot (mice which died / total)", "setting": "VRC5; oral, 5 mg/kg, DX 10", "result": "0/10"}, {"measurement": "% inhibition of tumor growth", "setting": "VRC5; oral, 10 mg/kg, DX 10", "result": 10, "unit": "%"}, {"measurement": "Tox/Tot (mice which died / total)", "setting": "VRC5; oral, 10 mg/kg, DX 10", "result": "0/10"}, {"measurement": "% inhibition of tumor growth", "setting": "VRC5; oral, 20 mg/kg, DX 10", "result": 45, "unit": "%"}, {"measurement": "Tox/Tot (mice which died / total)", "setting": "VRC5; oral, 20 mg/kg, DX 10", "result": "2/9"}, {"measurement": "% inhibition of tumor growth", "setting": "HC1; 7.5 mg/kg", "result": 1, "unit": "%"}, {"measurement": "Tox/Tot (mice which died / total)", "setting": "HC1; 7.5 mg/kg", "result": "0/10"}, {"measurement": "% inhibition of tumor growth", "setting": "HC1; 15 mg/kg", "result": 24, "unit": "%"}, {"measurement": "Tox/Tot (mice which died / total)", "setting": "HC1; 15 mg/kg", "result": "0/10"}, {"measurement": "% inhibition of tumor growth", "setting": "HC1; 30 mg/kg", "result": 46, "unit": "%"}, {"measurement": "Tox/Tot (mice which died / total)", "setting": "HC1; 30 mg/kg", "result": "6/10"}, {"measurement": "% inhibition of tumor growth", "setting": "HC1; 60 mg/kg", "result": "TOX"}, {"measurement": "Tox/Tot (mice which died / total)", "setting": "HC1; 60 mg/kg", "result": "10/10"}, {"measurement": "% inhibition of tumor growth", "setting": "B16; 3.75 mg/kg", "result": 0, "unit": "%"}, {"measurement": "Tox/Tot (mice which died / total)", "setting": "B16; 3.75 mg/kg", "result": "0/10"}, {"measurement": "% inhibition of tumor growth", "setting": "B16; 7.5 mg/kg", "result": 0, "unit": "%"}, {"measurement": "Tox/Tot (mice which died / total)", "setting": "B16; 7.5 mg/kg", "result": "0/10"}, {"measurement": "% inhibition of tumor growth", "setting": "B16; 15 mg/kg", "result": 0, "unit": "%"}, {"measurement": "Tox/Tot (mice which died / total)", "setting": "B16; 15 mg/kg", "result": "0/10"}, {"measurement": "% inhibition of tumor growth", "setting": "B16; 30 mg/kg", "result": 9, "unit": "%"}, {"measurement": "Tox/Tot (mice which died / total)", "setting": "B16; 30 mg/kg", "result": "0/10"}]}]}
